# Source: article PMC4641600, “Novel Activities of Select NSAID R-Enantiomers against Rac1 and Cdc42 GTPases” (PLoS ONE, 2015)
# Read-outs that look alike come from different tables or passages of the source.
# Tests used:
# Cdc42 [1] = conditions: cited from earlier work
# Rab7 = Rab7 (Homo sapiens, UniProt P51149); assay: Dose response, BODIPY-GTP binding; conditions: 10 nM to 100 µM
# Rab2 = Rab2 (Homo sapiens, UniProt P61019); assay: Dose response, BODIPY-GTP binding; conditions: 10 nM to 100 µM
# [2] = molecular target: Rac1Q61L activating mutant (Homo sapiens, UniProt P63000, Q61L); assay: Dose response, BODIPY-GTP binding; conditions: 10 nM to 100 µM
# Rac1 wt = Rac1 wt (Homo sapiens, UniProt P63000); assay: Dose response, BODIPY-GTP binding; conditions: 10 nM to 100 µM
# human COX-2 = molecular target: T1, human COX-2 (Homo sapiens, UniProt P35354); assay: Cyclooxygenase assay (CEREP), PGE2 formation; format: biochemical; conditions: recombinant enzyme, 4 μM arachidonic acid
# T1 construct: purchased CEREP Laboratories (contract assay); host or cells: Sf-9
# T1 sequence (P35354 18-604): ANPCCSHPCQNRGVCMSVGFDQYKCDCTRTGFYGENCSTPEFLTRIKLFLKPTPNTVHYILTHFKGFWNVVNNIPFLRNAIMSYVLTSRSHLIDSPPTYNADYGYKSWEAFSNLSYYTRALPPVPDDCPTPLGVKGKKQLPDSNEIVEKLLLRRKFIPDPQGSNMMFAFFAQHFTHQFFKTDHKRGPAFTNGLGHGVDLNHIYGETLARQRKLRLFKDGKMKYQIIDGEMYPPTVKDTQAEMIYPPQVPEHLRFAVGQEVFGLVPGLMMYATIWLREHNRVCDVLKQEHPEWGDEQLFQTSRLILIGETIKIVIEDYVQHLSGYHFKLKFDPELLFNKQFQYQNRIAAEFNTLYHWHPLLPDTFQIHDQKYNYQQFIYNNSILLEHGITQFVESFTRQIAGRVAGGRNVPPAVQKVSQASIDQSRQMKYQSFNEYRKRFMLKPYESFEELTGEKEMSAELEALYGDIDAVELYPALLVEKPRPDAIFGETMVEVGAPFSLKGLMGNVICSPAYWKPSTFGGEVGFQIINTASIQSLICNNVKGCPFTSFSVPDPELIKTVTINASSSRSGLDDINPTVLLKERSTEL
# [3] = molecular target: Cdc42Q61L activating mutant (Homo sapiens, UniProt P60953, Q61L); assay: Dose response, BODIPY-GTP binding; conditions: 10 nM to 100 µM; read-out: Cdc42 (act) EC50
# [4] = tested on: migration Rac1/Cdc42 dependent; design: method as in ref 28 (a number printed in a supplementary file, which may have a reference list of its own: not looked up in the article's list); conditions: read-out: IC50 migration Rac1/Cdc42 dependent (est); cited from earlier work
# H-RasG12V = H-RasG12V (Homo sapiens, UniProt P01112, G12V); assay: Dose response, BODIPY-GTP binding; conditions: 10 nM to 100 µM
# Experimental: (§1) For multiplex analyses of small GTPases, 4 μm diameter glutathione-beads (GSH-beads) distinguished by seven different intensities of red fluorescence were used according to our previously described protocols. The GST-GTPases included the following eight Ras-related small GTPases: Rab2 wt, Rab7 wt, Cdc42 wt, Cdc42Q61L activating mutant, H-Ras wt, H-RasG12V, Rac1 wt and Rac1Q61L activating mutant. Briefly, Prestwick Chemical Library® compounds were tested at 10 μM compound and 1% DMSO final concentrations. After a 10 min pre-incubation with the compound BODIPY- FL-GTP (100 nM final) was added to each well and bead associated fluorescence was measured. Sample analysis was conducted with a HyperCyt® high throughput flow cytometry platform. Flow cytometric light scatter at 488 nm and fluorescence emission at 530 +/− 20 nm (FL1) and 665 +/− 10 nm (FL8) were collected on a Cyan ADP flow cytometer (Beckman Coulter, Fullerton, CA). IDLQuery software was used to determine the compound activity in each well. Gating based on forward scatter (FS) and side scatter (SS) parameters was used to identify singlet bead populations. Gating based on FL8 emission distinguishes the beads coated with different proteins, and the median FL1 fluorescence per bead population were calculated. A compound was considered a “potential active” if the change in BODIPY-FL-GTP binding differed greater than 20% from that measured in DMSO treated controls.
# (§2) Test compounds identified for follow-up after the primary screen were tested at dilutions ranging from 10 nM to 100 μM final concentration against individual GTPases in multiplex and single-plex assays. Compounds tested in dose response assays were serially diluted 1:3 a total of eight times from a starting concentration of 10 mM giving a 9-point dilution series in DMSO.
# (§3) bConfirmatory screens entailed dose response assays conducted in a multiplex format with eight GTPases tested as for primary screen. BODIPY-GTP-binding activity was
# (§4) measured in the presence of 10 nM to 100 µM of each of 11 test compounds (4 primary screen hits and 7 additional NSAIDs considered to have chemical similarity to GTPase
# (§5) active compounds). GST-GFP coated beads served as a control to detect non-specific dissociation or denaturation caused by compound addition–none of the tested NSAIDs had
# (§6) any effect on bead-GST-protein binding. EC50 values were determined using Prism to determine dose response fits as shown in Figure 1 of main text; fits have R2 > 0.9. Active
# (§7) compounds based on same definition used as in primary screena. […]
# (§8) ‡A well-characterized selective Cdc42 inhibitor served as a positive control.
# Cdc42 wt = Cdc42 wt (Homo sapiens, UniProt P60953); assay: Dose response, BODIPY-GTP binding; conditions: 10 nM to 100 µM
# human COX-1 = molecular target: T2, human COX-1 (Homo sapiens, UniProt P23219); assay: Cyclooxygenase assay (CEREP), PGE2 formation; format: biochemical; conditions: recombinant enzyme, 4 μM arachidonic acid
# T2 construct: purchased CEREP Laboratories (contract assay); host or cells: Sf-9
# H-Ras wt = H-Ras wt (Homo sapiens, UniProt P01112); assay: Dose response, BODIPY-GTP binding; conditions: 10 nM to 100 µM
# Experimental: as §1, §2, §3, §4, §5, §6, §7
# [5] = tested on: OvCa429 and OvCa433 cells; assay: Boyden chamber cell migration assay; format: cell-based, human; conditions: estimated from limited dose response data; read-out: IC50 migration Rac1/Cdc42 dependent (est)
# Rac1 [6] = conditions: cited from earlier work
# COX-2 = tested on: COX-2; design: method as in ref 15 (a number printed in a supplementary file, which may have a reference list of its own: not looked up in the article's list); conditions: ovine seminal vesicles or human whole blood; cited from earlier work
# purified ovine COX-1 = tested on: purified ovine COX-1; design: method as in ref 14 (a number printed in a supplementary file, which may have a reference list of its own: not looked up in the article's list); conditions: purified ovine enzyme; cited from earlier work
# Rac1 [7] = molecular target: T3, Rac1 (Homo sapiens, UniProt P63000); assay: G-trap flow cytometric effector binding assay, HeLa cells; format: cell-based; conditions: ketorolac enantiomers, EGF stimulation, read-out: EC50 against Rac1
# T3 construct: endogenous in cells; host or cells: HeLa
# Rac1 [8] = molecular target: T4, Rac1 (Mus musculus, UniProt P63001); assay: GLISA, Swiss 3T3 cells; format: cell-based; conditions: for EGF-mediated Rac1 activation: 300 μM
# T4 construct: endogenous in cells; host or cells: Swiss 3T3
# Cdc42 [9] = molecular target: T5, Cdc42 (Mus musculus, UniProt P60766); assay: GLISA, Swiss 3T3 cells; format: cell-based; conditions: 1 h pretreatment, EGF stimulation
# T5 construct: endogenous in cells; host or cells: Swiss 3T3
# [10] = tested on: migration Rac1/Cdc42 dependent; assay: Migration IC50 (Table F); format: cell-based; conditions: ketorolac, calculated by GraphPad Prism5; read-out: IC50 migration Rac1/Cdc42 dependent (est)
# purified ovine COX-2 = tested on: purified ovine COX-2; design: method as in ref 14 (a number printed in a supplementary file, which may have a reference list of its own: not looked up in the article's list); conditions: purified ovine enzyme; cited from earlier work
# Cdc42 [11] = molecular target: T6, Cdc42 (Homo sapiens, UniProt P60953); assay: G-trap flow cytometric effector binding assay, HeLa cells; format: cell-based; conditions: ketorolac enantiomers, EGF stimulation, read-out: EC50 against Cdc42
# T6 construct: endogenous in cells; host or cells: HeLa
# [12] = tested on: Rac1 membrane localization; assay: Rac1 immunolocalization, OvCa433 cells; format: cell-based, human
# [13] = tested on: Rab2 wt, Rab7 wt, Cdc42 wt, Cdc42Q61L, H-Ras wt, H-RasG12V, Rac1 wt and Rac1Q61L; assay: Primary multiplex screen, BODIPY-FL-GTP binding on bead-bound GTPases (flow cytometry)
# OvCa433 cells = conditions: 0-300 µM, 48 h
# [14] = tested on: Tiam1 membrane localization; assay: Tiam1 immunolocalization, OvCa433 cells; format: cell-based, human
# Experimental: OvCa433 were plated on coverslips, treated with 300 μM NSAIDs for 1 h, fixed with 3% paraformaldehyde and immunostained for Rac1 or Tiam1. Actin was visualized with rhodamine phalloidin from Invitrogen (F432). Cells were imaged on a Zeiss LSM510 using a 63x objective and quantified using Image J.
# Rac1 and Tiam1 antibodies were confirmed in our hands to recognize single protein species of the predicted molecular weight by immunoblot.
# COX-1 = conditions: IC50 values not calculated; thromboxane B2, collagen-stimulated human platelets; cited from earlier work
# Ras-related GTPases = assay: Confirmatory dose response assays on eight Ras-related GTPases; format: binding
# Experimental: as §1, §2, §3, §4, §5, §6, §7, §8
# [15] = tested on: Rac1 and Tiam1 protein levels; assay: Immunoblot of protein levels; format: cell-based, human
# Experimental: Cells were stimulated with EGF at a final concentration of 1 nM for 10 min. Cells were lysed in a RIPA buffer consisting of 50 mM Tris pH 7.4, 1% NP-40, 0.25% sodium deoxycholate, 150 mM NaCl, 1 mM EDTA, 1 mM PMSF, 1 mM sodium vanadate, 10 mM sodium fluoride, 1 μg/mL each of pepstatin, aprotinin and leupeptin, 10 mM sodium pyrophosphate and 10 mM beta-glycerophosphate.
# N = 3. See also Figure D in S1 File for time dependent loss of Rac1 membrane localization. N = 3 (B) Quantification of image intensity using Image J of 3 representative confocal images as shown in panel (A) containing 20–30 cells/field normalized to actin and untreated controls. (C) Western blot analyses of lysates from cells treated with 300 μM compound as indicated for 24 h as compared to untreated controls. […] Blots were probed for Tiam1 (200 kDa), GAPDH (37 kDa), Rac1 (20 kDa), as a loading control. (D) Quantification of image intensity using Image J. Each marker was normalized to GAPDH and untreated controls. N = 3.
# OvCa429 cells = conditions: 300 μM, relative to 6-MNA
# [16] = immunofluorescence quantified using ImageJ
# T2 sequence (P23219 24-599): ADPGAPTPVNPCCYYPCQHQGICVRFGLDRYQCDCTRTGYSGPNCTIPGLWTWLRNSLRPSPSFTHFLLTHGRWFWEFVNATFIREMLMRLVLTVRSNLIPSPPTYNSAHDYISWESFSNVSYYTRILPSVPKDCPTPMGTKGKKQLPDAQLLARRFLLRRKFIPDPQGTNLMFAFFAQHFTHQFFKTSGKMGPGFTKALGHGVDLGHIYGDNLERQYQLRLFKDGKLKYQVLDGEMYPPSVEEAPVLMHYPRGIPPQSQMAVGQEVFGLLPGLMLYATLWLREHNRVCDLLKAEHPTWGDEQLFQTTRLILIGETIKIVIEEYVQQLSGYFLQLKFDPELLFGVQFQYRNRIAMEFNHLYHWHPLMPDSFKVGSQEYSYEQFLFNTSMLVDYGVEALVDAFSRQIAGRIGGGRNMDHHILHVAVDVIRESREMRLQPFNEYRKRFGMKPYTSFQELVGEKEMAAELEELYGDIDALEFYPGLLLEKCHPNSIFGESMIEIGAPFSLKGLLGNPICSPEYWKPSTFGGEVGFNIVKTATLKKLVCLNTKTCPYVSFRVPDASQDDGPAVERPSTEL
# Sequence of Rab2 (P61019 whole entry, species assumed): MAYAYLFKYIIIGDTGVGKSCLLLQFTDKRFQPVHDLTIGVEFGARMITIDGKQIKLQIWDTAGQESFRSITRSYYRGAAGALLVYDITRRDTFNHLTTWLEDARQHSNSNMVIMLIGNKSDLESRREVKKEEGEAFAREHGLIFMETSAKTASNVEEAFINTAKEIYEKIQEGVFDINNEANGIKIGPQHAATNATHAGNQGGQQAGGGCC
# Sequence of Rab7 (P51149 whole entry, species assumed): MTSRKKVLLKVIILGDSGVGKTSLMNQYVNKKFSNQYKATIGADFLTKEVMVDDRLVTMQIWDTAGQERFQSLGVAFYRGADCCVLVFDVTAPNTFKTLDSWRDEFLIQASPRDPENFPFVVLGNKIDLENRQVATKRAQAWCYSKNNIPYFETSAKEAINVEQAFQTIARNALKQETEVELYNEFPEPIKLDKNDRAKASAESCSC
# Sequence of Cdc42Q61L activating mutant (P60953 whole entry Q61L): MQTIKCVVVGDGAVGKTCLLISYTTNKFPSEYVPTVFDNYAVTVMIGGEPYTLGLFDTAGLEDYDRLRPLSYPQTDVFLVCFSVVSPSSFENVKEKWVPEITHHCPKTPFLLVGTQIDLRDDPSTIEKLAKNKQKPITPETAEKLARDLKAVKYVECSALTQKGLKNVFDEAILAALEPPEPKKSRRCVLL
# T5 sequence (P60766 whole entry): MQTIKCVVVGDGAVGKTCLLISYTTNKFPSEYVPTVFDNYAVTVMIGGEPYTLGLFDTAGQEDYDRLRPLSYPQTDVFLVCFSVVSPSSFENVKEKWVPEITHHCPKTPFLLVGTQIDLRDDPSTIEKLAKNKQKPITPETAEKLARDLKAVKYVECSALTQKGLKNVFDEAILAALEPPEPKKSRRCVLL
# Sequence of Cdc42 wt (P60953 whole entry): as the sequence (P60766 whole entry) above
# T6 sequence (P60953 whole entry): as the sequence (P60766 whole entry) above
structure (smiles),measurement,setting,value
COc1ccc(C2CC(c3ccccc3)=NN2c2ccc(S(N)(=O)=O)cc2)cc1 (centres unmarked) [CID2950007/ML141],IC50,Cdc42 [1],2.1 to 2.6 µM
same,Rab7 EC50,Rab7,inactive
same,Rab2 EC50,Rab2,inactive
same,Rac1 (act) EC50,[2],inactive
same,Rac1 wt EC50,Rac1 wt,inactive
same,IC50,human COX-2,0.58 µM
same,EC50,[3],5.4 µM
same,IC50,[4],~10 µM
same,H-Ras (act) EC50,H-RasG12V,inactive
same,EC50,Cdc42 wt,2.6 µM
same,IC50,human COX-1,1.8 µM
same,H-Ras wt EC50,H-Ras wt,inactive
CCN(CC)CCCC(C)Nc1nc(C)cc(Nc2ccc3nc(C)cc(N)c3c2)n1 (centres unmarked) [NSC23766],IC50,[5],< 30 µM
O=C(c1ccccc1)c1ccc2n1CC[C@H]2C(=O)O [R-ketorolac],COX-2 IC50 Previously Published,COX-2,Not sig
same,COX-1 IC50 Previously Published,purified ovine COX-1,Not sig
same,IC50,human COX-2,> 100 µM
same,EC50,Rac1 [7],0.574 µM
same,dose of maximal inhibitory activity against Rac1,"Rac1 [8]; 1 h preincubation, EGF stimulation",50 µM
same,dose of maximal inhibition of Cdc42 activation,Cdc42 [9],10 µM
same,IC50,[10],7 µM
same,IC50,human COX-1,0.99 µM
same,COX-2 IC50 Previously Published,purified ovine COX-2,Not sig
same,EC50,Cdc42 [11],1.07 µM
COc1ccc2cc([C@@H](C)C(=O)O)ccc2c1 [R-naproxen],Rac1 membrane localization,[12]; 300 μM,substantially reduced
same,Rac PM Localiz.,[12]; [16],34%
same,primary screen outcome,[13]; 10 μM compound,positive and hit
same,Primary Screen Hit,"[13]; single dose 10 µM, change in BODIPY-GTP binding on any one GTPase",Active
same,Rab7 EC50,Rab7,inactive
same,cytotoxicity,OvCa433 cells,not cytotoxic
same,Rab2 EC50,Rab2,inactive
same,Tiam1 membrane localization,[14]; 300 μM,substantially reduced
same,Tiam1 GEF PM localiz.,[14]; [16],32%
same,EGF-mediated Rac1 activation,Rac1 [8]; 15 min pretreatment,significantly inhibited
same,EGF-mediated Rac1 activation,Rac1 [8]; 1 h pretreatment,reduced activation to basal unstimulated levels
same,inhibition at 300 µM,"Rac1 [8]; Swiss-3T3, at 300 µM",100%
same,H-Ras (act) EC50,H-RasG12V,inactive
same,COX-1 Previously Published,COX-1,R>S
same,activity against the GTPases in confirmatory dose response assays (words),Ras-related GTPases; 10 nM to 100 µM,varying activity levels
same,EC50,"Ras-related GTPases; additional confirmatory dose response assays, different conditions",3 to 18 µM
same,H-Ras wt EC50,H-Ras wt,inactive
same,total Rac1 or Tiam1 protein levels,"[15]; 300 μM, 24 h, immunoblot",did not alter
same,Rac protein expression,[15]; immunoblot analysis,No change
same,invadopodia formation,OvCa429 cells,inhibited
